According to paper PMC5431176, “Identification of a High-Affinity Pyruvate Receptor in Escherichia coli” (Scientific Reports, 2017):

Target: T1, BtsS (YehU) (Escherichia coli, UniProt P0AD14)
T1 construct: full-length BtsS-6His in membrane vesicles
Assay: DRaCALA with […]-pyruvate on BtsS membrane vesicles, competition with cold pyruvate
Format: binding

T1 sequence (P0AD14 whole entry): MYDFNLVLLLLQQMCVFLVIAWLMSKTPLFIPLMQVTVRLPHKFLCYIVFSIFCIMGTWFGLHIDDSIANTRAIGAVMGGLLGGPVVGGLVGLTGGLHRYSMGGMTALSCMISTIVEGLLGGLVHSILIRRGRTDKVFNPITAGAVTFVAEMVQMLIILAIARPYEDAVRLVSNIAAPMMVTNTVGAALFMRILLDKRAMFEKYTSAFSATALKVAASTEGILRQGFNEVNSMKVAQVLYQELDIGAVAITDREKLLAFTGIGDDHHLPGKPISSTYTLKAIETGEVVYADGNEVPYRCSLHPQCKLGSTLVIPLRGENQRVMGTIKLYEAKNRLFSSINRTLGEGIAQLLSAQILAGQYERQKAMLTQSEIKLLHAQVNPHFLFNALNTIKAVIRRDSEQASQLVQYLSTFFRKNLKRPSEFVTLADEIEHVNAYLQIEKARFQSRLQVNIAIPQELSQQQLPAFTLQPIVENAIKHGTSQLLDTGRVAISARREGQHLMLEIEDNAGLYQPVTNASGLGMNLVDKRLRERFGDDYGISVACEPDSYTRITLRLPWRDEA

CC(=O)C(=O)O [pyruvate]
Kd: 58.6 ± 8.8 µM
